This note sets out measurements from ChEMBL document CHEMBL5678796, “A highly potent and selective farnesyltransferase inhibitor ABT-100 in preclinical studies” (Anticancer Drugs, 2005).

SMILES strings stand for the structures.

A short description of experiment [1]: Inhibition of FTase (unknown origin). Also on record: species or system Homo sapiens.
Experiment [2] can be described thus: Inhibition of FTase in H-Ras transformed mouse NIH3T3 cells using Ras as substrate assessed as inhibition of substrate prenylation in presence of 10% bovine serum by immunoblot analysis. Type of experiment: cell-based.
Experiment [3] deals with HCT-116. Kind of experiment: Antitumor activity against human HCT-116 cells xenografted in nu/nu CD1 mouse assessed as increase in life span at 50 mg/kg, ip preinoculated with cells for 14 days followed by once every 4 days compound administration for 4 times and measured on day 40 relative to vehicle in time to 1 cm^3 tumor. The format is functional. The following applies: HCT-116, 960 h, time 40 day. (In general: In xenograft studies the graft and the host belong to different species.)

Experiment [4] relates to HCT-116. Kind of experiment: Antitumor activity against human HCT-116 cells xenografted in nu/nu CD1 mouse assessed as tumor volume at 30 mg/kg, ip preinoculated with cells for 5 days followed by once every 3 days compound administration for 4 times and measured on day 22 (reference value: 1861 +/- 410 mm^3). The format is functional. The following applies: time 22 day.

Experiment [5] has as its system HCT-116. Nature of the experiment: Antitumor activity against human HCT-116 cells xenografted in nu/nu CD1 mouse assessed as increase in life span at 30 mg/kg, ip preinoculated with cells for 5 days followed by once every 3 days compound administration for 4 times and measured on day 22 relative to vehicle in time to 1 cm3 tumor. Type of experiment: functional. The following applies: HCT-116, 528 h, time 22 day.

The subject of experiment [6] is HCT-116. Nature of the experiment: Antitumor activity against human HCT-116 cells xenografted in nu/nu CD1 mouse assessed as reduction in tumor volume by measuring test to control ratio at 30 mg/kg, ip preinoculated with cells for 5 days followed by once every 3 days compound administration for 4 times and measured on day 22. Type of experiment: functional. The following applies: time 22 day.

The nature of experiment [7]: Ratio of EC50 for inhibition of FTase in human HCT-15 cells expressing high level of P-gp1 using Ras as substrate assessed as inhibition of substrate post-translation processing in presence of 20% human serum to EC50 for inhibition of FTase in human HCT-15 cells expressing high level of P-gp1 using Ras as substrate assessed as inhibition of substrate post-translation processing in presence of 10% …. The following applies: condition cancer.

Experiment [8] in a line: Inhibition of GGTase in H-Ras transformed mouse NIH3T3 cells using Rap 1A as substrate assessed as inhibition of substrate prenylation in presence of 10% bovine serum by immunoblot analysis. The format is cell-based. (In general: Immunoblotting shows a protein as a band on a membrane.)
Experiment [9] is described as follows: Inhibition of FTase in human HCT-116 cells expressing low level of P-gp1 using Ras as substrate assessed as inhibition of substrate post-translation processing in presence of 20% human serum by immunoblot analysis. Type of experiment: cell-based.
Experiment [10] can be described thus: Inhibition of FTase in human HCT-15 cells expressing high level of P-gp1 using Ras as substrate assessed as inhibition of substrate post-translation processing in presence of 20% human serum by immunoblot analysis. Type of experiment: cell-based.
The nature of experiment [11]: Ratio of EC50 for inhibition of FTase in human HCT-116 cells expressing low level of P-gp1 using Ras as substrate assessed as inhibition of substrate post-translation processing in presence of 20% human serum to EC50 for inhibition of FTase in human HCT-116 cells expressing low level of P-gp1 using Ras as substrate assessed as inhibition of substrate post-translation processing in presence of 10% …. Particulars: condition cancer.

Experiment [12] deals with HCT-116. Nature of the experiment: Inhibition of anchorage-independent growth in human HCT-116 cells assessed as inhibition of colony formation incubated for 14 days in presence of 10% FBS by imaging based soft agar colony formation assay. Type of experiment: functional, cell-based. The following applies: HCT-116, 336 h.
Experiment [13] in a line: Ratio of EC50 for inhibition of FTase in human DLD-1 cells expressing moderate level of P-gp1 using Ras as substrate assessed as inhibition of substrate post-translation processing in presence of 20% human serum to EC50 for inhibition of FTase in human DLD-1 cells expressing moderate level of P-gp1 using Ras as substrate assessed as inhibition of substrate post-translation processing in presence …. The following applies: condition cancer.

Experiment [14] is described as follows: Inhibition of recombinant human FTase incubated for 30 mins in presence of [3H]FPP by SPA based Topcount scintillation plate reader analysis.
The test system of experiment [15] is HCT-116. Kind of experiment: Antitumor activity against human HCT-116 cells xenografted in nu/nu CD1 mouse assessed as increase in life span at 100 mg/kg, sc preinoculated with cells for 5 days followed by twice daily compound administration for 21 days and measured on day 22 relative to vehicle in time to 1 cm3 tumor. The format is functional. The following applies: HCT-116, 528 h, time 22 day.

Experiment [16] is described as follows: Inhibition of FTase in human DLD-1 cells expressing moderate level of P-gp1 using Ras as substrate assessed as inhibition of substrate post-translation processing in presence of 10% FBS by immunoblot analysis. Type of experiment: cell-based.
Experiment [17] relates to NIH3T3. Kind of experiment: Inhibition of anchorage-independent growth in H-Ras transformed mouse NIH3T3 cells assessed as inhibition of colony formation incubated for 14 days in presence of 10% bovine serum by imaging based soft agar colony formation assay. Type of experiment: functional, cell-based. Particulars: NIH3T3, 336 h.
Experiment [18] can be described thus: Inhibition of FTase in human HCT-116 cells expressing low level of P-gp1 using Ras as substrate assessed as inhibition of substrate post-translation processing in presence of 10% FBS by immunoblot analysis. Type of experiment: cell-based.
Experiment [19] can be described thus: Inhibition of FTase in human DLD-1 cells expressing moderate level of P-gp1 using Ras as substrate assessed as inhibition of substrate post-translation processing in presence of 10% human serum by immunoblot analysis. The format is cell-based.
Experiment [20] is described as follows: Inhibition of recombinant bovine FTase incubated for 30 mins in presence of [3H]FPP by SPA based Topcount scintillation plate reader analysis. Further details: species or system Bos taurus.
A short description of experiment [21]: Inhibition of recombinant bovine GGTase I incubated for 30 min sin presence of [3H]FPP by SPA based Topcount scintillation plate reader analysis. Further details: species or system Bos taurus.
Experiment [22] is described as follows: Inhibition of FTase in human HCT-15 cells expressing high level of P-gp1 using Ras as substrate assessed as inhibition of substrate post-translation processing in presence of 10% FBS by immunoblot analysis. The format is cell-based.
Experiment [23] deals with HCT-116. Kind of experiment: Antitumor activity against human HCT-116 cells xenografted in nu/nu CD1 mouse assessed as reduction in tumor volume by measuring test to control ratio at 100 mg/kg, sc preinoculated with cells for 5 days followed by twice daily compound administration for 21 days and measured on day 22. The format is functional. Particulars: time 22 day.
Experiment [24] concerns HCT-116. Nature of the experiment: Antitumor activity against human HCT-116 cells xenografted in nu/nu CD1 mouse assessed as tumor volume at 100 mg/kg, sc preinoculated with cells for 5 days followed by twice daily compound administration for 21 days and measured on day 22 (reference value: 1436 +/- 263 mm^3). Type of experiment: functional. The following applies: time 22 day.

The subject of experiment [25] is HCT-116. Kind of experiment: Inhibition of anchorage-independent growth in human HCT-116 cells assessed as inhibition of colony formation in presence of 10% FBS. The format is functional, cell-based.
Experiment [26] has as its system NIH3T3. Nature of the experiment: Inhibition of anchorage-independent growth in H-Ras transformed mouse NIH3T3 cells assessed as inhibition of colony formation in presence of 10% bovine serum. The format is functional, cell-based.

On to `Cn1cncc1C(O)(COc1ccc(C#N)cc1-c1ccc(OC(F)(F)F)cc1)c1ccc(C#N)cc1` (stereo not drawn), for which the figures for the EC50 in experiment [1] and in experiment [2] were 0.0006 µM and 0.002 µM, respectively.
Take `CCc1c2c(nc3ccc(OC(=O)N4CCC(N5CCCCC5)CC4)cc13)-c1cc3c(c(=O)n1C2)COC(=O)[C@]3(O)CC` [IRINOTECAN]: the ILS at 50 mg/kg in the experiment on HCT-116 [3] was 200%.
Take `Nc1ccn([C@@H]2O[C@H](CO)[C@@H](O)C2(F)F)c(=O)n1` [GEMCITABINE]: the Activity in the experiment on HCT-116 [4] was 359 mm3. Further, the ILS at 30 mg/kg in the experiment with HCT-116 [5] was 112%. The T/C in the experiment with HCT-116 [6] worked out at 22%.
Regarding `Cn1cncc1[C@@](N)(c1ccc(Cl)cc1)c1ccc2c(c1)c(-c1cccc(Cl)c1)cc(=O)n2C` [TIPIFARNIB], the “Ratio EC50” value in experiment [7], in [11] and in [13] was 4.4 throughout. Besides, the EC50 in [8] is over 30 µM; in experiment [9], 0.0067 µM; in [10], 0.0049 µM; with HCT-116 [12] it was 0.024 µM; in experiment [16], 0.00069 µM; in the experiment on NIH3T3 [17] it was 0.0037 µM. For the same molecule, the EC50 in experiment [18] amounted to 0.00098 µM; in [19], 0.0031 µM; in experiment [22], 0.00055 µM; in experiment [2] it was 0.0023 µM. For the same molecule, the IC50 in [14] is 0.00045 µM; in [20], 0.057 µM; in [21], 1.04 µM. The ILS at 100 mg/kg in the experiment on HCT-116 [15] stood at 39%. Further, the T/C in the experiment on HCT-116 [23] is 56%. Moreover, in the experiment on HCT-116 [24], the Activity was 820 mm3.
For the molecule `NC(=O)N1CCC(CC(=O)N2CCC([C@H]3c4ncc(Br)cc4CCc4cc(Cl)cc(Br)c43)CC2)CC1` [LONAFARNIB], the “Ratio EC50” value in [7], in experiment [11] and in [13] was 1.9 in each case. The 50% effective concentration (EC50) in experiment [8] is over 30 µM; in experiment [9], 0.049 µM; in experiment [10] it was 0.21 µM; with HCT-116 [25], 0.074 µM; with HCT-116 [12], 0.094 µM; in [16] it was 0.012 µM. The EC50 worked out at 0.056 µM with NIH3T3 [17]; 0.016 µM in experiment [18]; 0.023 µM in experiment [19]; 0.05 µM in the experiment with NIH3T3 [26]; 0.037 µM in [22]; 0.16 µM in [2]. The results for the IC50 in [14], in experiment [20] and in experiment [21] were 0.0049 µM, 0.0078 µM and over 10 µM, respectively.

In general, EC50 refers to the midpoint of the concentration-response curve. What is called ILS is the gain in survival time of treated over control animals, in per cent. Usually T/C stands for the result in the treated group divided by that in the control group, in per cent. One may read the IC50 as the concentration that inhibits the measured activity by half.
